According to patent publication US20100256069A1, “TARGETED INDUCTION OF AGGREGATION OF PROTEINS WITH CROSS BETA STRUCTURES” (VIB VZM, priority 2007, published 2010):
The star is where a group is joined. Biotin = O=C1N[C@H]2[C@H](CS[C@H]2CCCCC(=O)*)N1

Molecular target: streptavidin-HRP fusion protein (Streptomyces avidinii, UniProt P22629)
Assay: Depletion of streptavidin-HRP from solution by co-aggregation (residual HRP activity in supernatant, TMB readout)
Details: aggregator 1 μM, streptavidin-HRP diluted 1:20,000 in PBS, overnight, room temperature, 750 rpm; FIG. 1
Procedure: In order to show depletion between the fusion protein HRP-streptavidin from solution due to co-aggregation with the aggregator, we co-incubated the aggregator with the streptavidin-HRP fusion protein. […] To this end, a streptavidin-HRP stock solution (AbD Serotec, product number 710005) was diluted 1:20,000 in PBS and incubated with the aggregator at a final concentration of 1 μM. The samples were incubated overnight with agitation at 750 rpm at room temperature. A control sample consisting of the fusion protein SA-HRP alone in identical buffer (PBS plus 10% DMSO) was included. […] After overnight incubation, co-aggregated material was removed from the sample by centrifugation for 15 min at 17,000 g in a cooled bench top microfuge at 10° C. Of the supernatant, 10 μL was recovered and added in a 96 well plate (Falcon, 353072) to 90 μL of TMB solution. This mixture was incubated at room temperature for 1 minute, after which the colorimetric reaction was arrested by the addition of 100 μL of 2 M H2SO4. The absorbance of the resulting yellow product was measured at OD450nm using an Ultra Microplate Reader (BioTEK, ELx808IU).

Chain of streptavidin-HRP fusion protein (P22629 25-183): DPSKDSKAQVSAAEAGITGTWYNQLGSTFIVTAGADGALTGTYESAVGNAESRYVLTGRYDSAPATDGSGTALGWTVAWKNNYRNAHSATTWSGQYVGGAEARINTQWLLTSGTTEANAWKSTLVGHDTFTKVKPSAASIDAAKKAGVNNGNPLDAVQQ
Chain of streptavidin-HRP fusion protein (P00433 31-338, further chain): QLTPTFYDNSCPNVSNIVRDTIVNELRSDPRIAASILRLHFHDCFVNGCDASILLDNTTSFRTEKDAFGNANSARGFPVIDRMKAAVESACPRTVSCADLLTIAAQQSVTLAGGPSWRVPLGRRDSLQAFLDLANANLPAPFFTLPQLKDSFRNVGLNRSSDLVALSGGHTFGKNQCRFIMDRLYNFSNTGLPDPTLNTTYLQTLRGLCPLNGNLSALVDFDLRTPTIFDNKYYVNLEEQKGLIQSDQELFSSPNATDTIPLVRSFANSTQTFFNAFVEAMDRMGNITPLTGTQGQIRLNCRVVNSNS

Biotin-ALAVVLQ-NH2
residual percentage HRP activity in the supernatant after removal of the co-aggregates by centrifugation: clearly removes the enzyme from the soluble fraction
